Laboratory results taken from patent US20110251253A1, “SOLID FORMS OF (R)-1-(2,2-DIFLUOROBENZO[D][1,3]DIOXOL-5-YL)-N-(1-(2,3-DIHYDROXYPROPYL)-6-FLUORO-2-(1-HYDROXY-2-METHYLPROPAN-2-YL)-1H-INDOL-5-YL) CYCLOPROPANECARBOXAMIDE” (VERTEX PHARMACEUTICALS INCORPORATED, priority 2010, published 2011).

Experiment: Solubility of Compound 1 in solvents
Format: physicochemical

solubility (acetonitrile, methanol, ethanol, isopropyl alcohol, acetone, organic solvent or mixture): > 20 mg/mL | solubility (organic solvent or mixture, first solvent, e.g. ethyl acetate, ethanol, isopropyl alcohol, or acetone): > 20 mg/mL | solubility (second solvent, for example heptane or water): < 1 mg/mL
SMILES: CC(C)(CO)c1cc2cc(NC(=O)C3(c4ccc5c(c4)OC(F)(F)O5)CC3)c(F)cc2n1C[C@@H](O)CO [Compound 1, (R)-1-(2,2-difluorobenzo[d][1,3]dioxol-5-yl)-N-(1-(2,3-dihydroxypropyl)-6-fluoro-2-(1-hydroxy-2-methylpropan-2-yl)-1H-indol-5-yl)cyclopropanecarboxamide]
